The target of the assay is T1, ERα (Homo sapiens, UniProt P03372).
T1 sequence (P03372 1-595): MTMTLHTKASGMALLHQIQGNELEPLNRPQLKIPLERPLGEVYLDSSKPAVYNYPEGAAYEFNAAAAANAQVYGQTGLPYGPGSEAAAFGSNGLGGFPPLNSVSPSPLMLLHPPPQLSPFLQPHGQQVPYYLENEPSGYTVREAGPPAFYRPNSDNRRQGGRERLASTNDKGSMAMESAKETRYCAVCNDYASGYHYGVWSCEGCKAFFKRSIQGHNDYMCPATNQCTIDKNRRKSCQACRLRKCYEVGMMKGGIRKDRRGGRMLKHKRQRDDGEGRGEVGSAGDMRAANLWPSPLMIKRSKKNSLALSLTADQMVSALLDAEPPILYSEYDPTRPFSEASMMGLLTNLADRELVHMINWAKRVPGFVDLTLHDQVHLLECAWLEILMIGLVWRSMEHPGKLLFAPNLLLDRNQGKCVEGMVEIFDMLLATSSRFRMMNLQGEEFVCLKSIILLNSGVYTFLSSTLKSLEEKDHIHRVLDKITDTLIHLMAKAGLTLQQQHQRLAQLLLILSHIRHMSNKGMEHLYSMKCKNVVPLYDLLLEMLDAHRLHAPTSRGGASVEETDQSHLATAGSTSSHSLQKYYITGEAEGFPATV
The assay is described as follows: fluorescence polarization competition with ES2 tracer, recombinant ER. The assay is classed as binding.

The values that follow come from article PMC4007162 (Journal of molecular endocrinology, 2011).

For `Oc1ccc(Nc2nc(-c3ccc(Cl)cc3)cs2)cc1` [SKI-II, 4-[4-(4-chloro-phenyl)-thiazol-2-ylamino]-phenol], the half-inhibitory concentration (IC50) was found to be 85.8 nM.
